Data as given in ChEMBL document CHEMBL1201862, “PubChem BioAssay data set” (2004).
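A five-concentration, 48-hour dose response in 96-well plates underlies each endpoint, interpolated linearly between surrounding concentrations. Abbreviation: GI50, concentration required for 50% inhibition of growth.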 Calls of active or inactive are those of the source. Rule as the data show it: active = GI50 up to about 1.1 µM and inactive = higher.

Legend:
Assay in all cases: DTP human tumour cell line panel, 48 h
SNB-19 = system: SNB-19
786-0 = system: 786-0
MDA-N = system: MDA-N
MDA-MB-231 = system: MDA-MB-231
HT-29 = system: HT-29
T47D = system: T47D
RXF 393 = system: RXF 393
UACC-257 = system: UACC-257
NCI/ADR-RES = system: NCI/ADR-RES
PC-3 = system: PC-3
EKVX = system: EKVX
SK-MEL-2 = system: SK-MEL-2
Hs-578T = system: Hs-578T
A549 = system: A549
SN12C = system: SN12C
MDA-MB-435 = system: MDA-MB-435
LOX IMVI = system: LOX IMVI
MCF7 = system: MCF7

Structure (SMILES) | GI50 (SNB-19) | GI50 (786-0) | GI50 (MDA-N) | GI50 (MDA-MB-231) | GI50 (HT-29) | GI50 (T47D) | GI50 (RXF 393) | GI50 (UACC-257) | GI50 (NCI/ADR-RES) | GI50 (PC-3) | GI50 (EKVX) | GI50 (SK-MEL-2) | GI50 (Hs-578T) | GI50 (A549) | GI50 (SN12C) | GI50 (MDA-MB-435) | GI50 (LOX IMVI) | GI50 (MCF7)
Cc1cc(C)nc(NC(=S)Nc2cccc(Cl)c2)c1 | > 100 µM (inactive) | > 48.5 µM (inactive) | > 100 µM (inactive) | > 100 µM (inactive) | > 83.4 µM (inactive) | > 88.3 µM (inactive) | > 100 µM (inactive) | > 100 µM (inactive) | > 100 µM (inactive) | > 100 µM (inactive) | > 100 µM (inactive) | > 100 µM (inactive) | > 100 µM (inactive) | 20.8 µM (inactive) | > 100 µM (inactive) | > 100 µM (inactive) | > 100 µM (inactive) | 
COc1ccc(S(=O)(=O)O)cc1-n1nc(C(=O)Nc2ccccc2)n[n+]1-c1cc(S(=O)(=O)[O-])ccc1OC | > 100 µM (inactive) | > 100 µM (inactive) | > 100 µM (inactive) | > 100 µM (inactive) | > 100 µM (inactive) | > 100 µM (inactive) | > 100 µM (inactive) |  | > 100 µM (inactive) | > 100 µM (inactive) | > 100 µM (inactive) |  | > 100 µM (inactive) | > 100 µM (inactive) | > 100 µM (inactive) | > 100 µM (inactive) |  | > 100 µM (inactive)
O=S(=O)(O)c1ccc2c(/N=N\c3ccc(F)cc3)c(O)c(S(=O)(=O)O)cc2c1 | > 100 µM (inactive) | > 100 µM (inactive) | > 100 µM (inactive) | > 100 µM (inactive) | > 100 µM (inactive) | > 100 µM (inactive) | > 100 µM (inactive) | > 100 µM (inactive) | > 100 µM (inactive) | > 100 µM (inactive) | > 100 µM (inactive) | > 100 µM (inactive) | > 100 µM (inactive) | > 100 µM (inactive) | > 100 µM (inactive) | > 100 µM (inactive) | > 100 µM (inactive) | 
Cc1ccc(S(=O)(=O)N2CCN(S(=O)(=O)c3ccc(C)cc3)CCN(S(=O)(=O)c3ccc(C)cc3)Cc3cc(Br)c(Br)cc3CN(S(=O)(=O)c3ccc(C)cc3)CC2)cc1 | 43.5 µM (inactive) | > 100 µM (inactive) | 66.8 µM (inactive) | 23.3 µM (inactive) | > 100 µM (inactive) | > 100 µM (inactive) | > 100 µM (inactive) | 37.2 µM (inactive) | > 100 µM (inactive) | 46.9 µM (inactive) | 68.2 µM (inactive) |  | > 100 µM (inactive) | > 100 µM (inactive) | > 100 µM (inactive) | > 100 µM (inactive) | 79.4 µM (inactive) | > 100 µM (inactive)
CCOC(=O)c1c(SCC#N)n(-c2ccccc2)c(=S)n(-c2ccccc2)c1=O | 37.8 µM (inactive) | 53.5 µM (inactive) | 82.8 µM (inactive) |  | 41.2 µM (inactive) | 44 µM (inactive) |  | 61.2 µM (inactive) | 35.3 µM (inactive) | 18.8 µM (inactive) | 36.3 µM (inactive) | 39.5 µM (inactive) | 28.1 µM (inactive) | 39.4 µM (inactive) | 32.4 µM (inactive) | 38.7 µM (inactive) | 14.7 µM (inactive) | 37.8 µM (inactive)
CC1=NC2(CCCCC2)N(Cl)C(=O)C1SC#N (stereo not drawn) | 23.4 µM (inactive) | 17.5 µM (inactive) | 15.8 µM (inactive) | 17.6 µM (inactive) | 20.7 µM (inactive) | 21.6 µM (inactive) | 18.3 µM (inactive) |  | 20.3 µM (inactive) | 15.8 µM (inactive) | 17.5 µM (inactive) | 20 µM (inactive) | 41 µM (inactive) | 0.0504 µM (active) | 19.4 µM (inactive) | 19.2 µM (inactive) | 10.7 µM (inactive) | 23.6 µM (inactive)
COC(=O)C1(SC)C2CCC3C2CCC31 (stereo not drawn) | > 100 µM (inactive) | > 100 µM (inactive) | > 100 µM (inactive) | > 100 µM (inactive) |  | > 100 µM (inactive) | > 100 µM (inactive) | > 100 µM (inactive) | > 100 µM (inactive) | > 100 µM (inactive) | > 100 µM (inactive) | > 100 µM (inactive) | > 100 µM (inactive) | > 100 µM (inactive) | > 100 µM (inactive) | > 100 µM (inactive) | > 100 µM (inactive) | > 100 µM (inactive)
NC(Cc1ccc(S(=O)(=O)O)cc1)C(=O)NC(Cc1ccc(S(=O)(=O)O)cc1)C(=O)O (stereo not drawn) |  | > 100 µM (inactive) | > 100 µM (inactive) | > 100 µM (inactive) | > 100 µM (inactive) | > 100 µM (inactive) | > 100 µM (inactive) | > 100 µM (inactive) | > 100 µM (inactive) | > 100 µM (inactive) | > 100 µM (inactive) | > 100 µM (inactive) | > 100 µM (inactive) | > 100 µM (inactive) | > 100 µM (inactive) | > 100 µM (inactive) | > 100 µM (inactive) | > 100 µM (inactive)
